From patent publication US20140023611A1 (priority 2010, published 2014)

What was measured:
[1] = biological target: T1, rat NaP2b (SLC34A2) (Rattus norvegicus, UniProt Q9JJ09); assay: Inhibition of NaP2b-mediated Pi (33P) uptake in transfected HEK293 cells, rat NaP2b; assay type: cell-based; settings: 33P Pi uptake, 0.1 mM phosphate, value given as pIC50 range
T1 construct: host or cells: HEK293
T1 sequence (Q9JJ09 1-695): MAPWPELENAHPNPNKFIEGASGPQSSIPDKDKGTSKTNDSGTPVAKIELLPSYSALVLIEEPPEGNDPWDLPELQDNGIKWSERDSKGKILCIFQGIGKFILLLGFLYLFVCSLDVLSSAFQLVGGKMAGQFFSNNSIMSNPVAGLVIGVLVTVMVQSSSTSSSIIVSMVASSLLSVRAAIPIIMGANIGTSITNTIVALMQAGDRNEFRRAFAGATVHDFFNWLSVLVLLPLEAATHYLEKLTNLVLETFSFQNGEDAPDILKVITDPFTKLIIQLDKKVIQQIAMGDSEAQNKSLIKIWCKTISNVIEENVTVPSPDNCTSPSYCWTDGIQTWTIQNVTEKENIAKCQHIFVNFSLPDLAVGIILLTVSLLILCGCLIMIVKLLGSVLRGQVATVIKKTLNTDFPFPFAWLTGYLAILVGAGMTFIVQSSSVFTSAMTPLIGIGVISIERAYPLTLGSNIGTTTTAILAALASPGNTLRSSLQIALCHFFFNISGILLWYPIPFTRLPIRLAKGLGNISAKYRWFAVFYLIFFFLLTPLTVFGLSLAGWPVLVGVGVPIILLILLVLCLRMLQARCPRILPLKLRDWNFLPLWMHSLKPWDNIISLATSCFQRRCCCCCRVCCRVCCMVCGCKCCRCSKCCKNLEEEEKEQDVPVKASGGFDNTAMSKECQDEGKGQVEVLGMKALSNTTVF
Method in brief: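 The cells transiently expressed NaP2b after Lipofectamine transfection. Each compound was run in duplicate over twelve concentrations, 0.1 nM–30 uM.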

[2] = biological target: T2, human NaP2b (SLC34A2) (Homo sapiens, UniProt O95436); assay: Inhibition of NaP2b-mediated Pi (33P) uptake in transfected HEK293 cells, human NaP2b; assay type: cell-based; settings: read-out: pIC50 range for human NaP2b (converted)
T2 construct: host or cells: HEK293
T2 sequence (O95436 1-690): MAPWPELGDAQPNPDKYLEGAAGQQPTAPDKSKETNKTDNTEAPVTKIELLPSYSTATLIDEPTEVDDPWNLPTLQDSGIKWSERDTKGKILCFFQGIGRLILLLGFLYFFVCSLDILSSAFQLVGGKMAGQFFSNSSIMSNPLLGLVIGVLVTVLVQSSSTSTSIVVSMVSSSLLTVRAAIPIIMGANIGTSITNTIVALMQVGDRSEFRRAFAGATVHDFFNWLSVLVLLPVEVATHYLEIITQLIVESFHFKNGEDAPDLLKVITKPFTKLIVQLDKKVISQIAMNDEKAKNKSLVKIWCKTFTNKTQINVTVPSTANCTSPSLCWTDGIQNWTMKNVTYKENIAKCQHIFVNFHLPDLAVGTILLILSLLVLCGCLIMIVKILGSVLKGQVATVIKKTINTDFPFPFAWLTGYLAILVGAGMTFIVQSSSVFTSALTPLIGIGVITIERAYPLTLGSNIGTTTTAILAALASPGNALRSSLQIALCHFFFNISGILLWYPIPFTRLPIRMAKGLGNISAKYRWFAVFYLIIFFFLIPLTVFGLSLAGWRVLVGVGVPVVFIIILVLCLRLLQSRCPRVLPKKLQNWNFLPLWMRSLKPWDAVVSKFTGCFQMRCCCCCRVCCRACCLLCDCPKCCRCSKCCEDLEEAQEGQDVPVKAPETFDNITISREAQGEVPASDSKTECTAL
Experimental: HEK293 cells were obtained from the American Type Culture collection and propagated per their instructions. Expression clones for rat and human NaP2b (SLC34A2) were obtained from Open Biosystems (Catalog numbers MRN1768-9510282, and MHS1010-99823026, respectively). The sequence of the human protein was mutated to insert a threonine after residue 37, and to introduce a N39D mutation.
The rate of phosphate (Pi) uptake into HEK293 cells was measured using a modification of the method described by Mohrmann et al. (Mohrmann, I., Mohrmann, M., Biber, J., and Murer, H. (1986) Am. J. Phys. 250(3 Pt 1):G323-30.) Transfected HEK293 cells were treated with a pharmacological agent to minimize endogenous PiT-mediated phosphate transport activity, such that the only remaining sodium-dependent phosphate transport activity is that which was bestowed by introduction of the NaP2b genes.
Cells were seeded into 96-well plates at 25,000 cells/well and cultured overnight. Lipofectamine 2000 (Invitrogen) was used to introduce the NaP2b cDNA, and the cells were allowed to approach confluence during a second overnight incubation. […] Cells were then overlayed with either choline uptake buffer or sodium uptake buffer (14 mM Tris, 137 mM sodium chloride, 5.4 mM KCl, 2.8 mM CaCl2, 1.2 mM MgSO4, 100 uM KH2PO4, PiT-silencing agent, 1 mg/mL Bovine Serum Albumin, pH 7.4) containing 6-9 uCi/mL ^33P orthophosphoric acid (Perkin Elmer) and test compound. Each compound was tested at twelve concentrations ranging from 0.1 nM to 30 uM. Assays were run in duplicate.
After incubation for 3-30 minutes at room temperature, assay mixtures were removed, and the cells were washed twice with ice cold stop solution (137 mM sodium chloride, 14 mM Tris, pH 7.4). Cells were lysed by addition of 20 μL 0.1% Tween 80 followed by 100 μL scintillation fluid, and counted using a TopCount (Perkin Elmer).
pIC50 (the negative log of the IC50) values of the test compounds were calculated using GraphPad Prism.

Compound | IC50 [1] [µM] | IC50 [2] [µM]
CCN(CC)c1ccc(NC(=O)c2cccc(C#CCOCCOCCOCCOCCOCCOCCOCCOCCOC)c2)c(-c2cc(C(=O)NCc3cccc(C(F)(F)F)c3)ccn2)c1 [Example 268, 2-(2-(3-(2,5,8,11,14,17,20,23,26-nonaoxanonacos-28-yn-29-yl)benzamido)-5-(diethylamino)phenyl)-N-(3-(trifluoromethyl)benzyl)isonicotinamide] | < 1 | < 1
CCN(CC)c1ccc(NC(=O)c2cccc(COCCOCCOCCOCCOC(=O)NCCOCCOCCOCCOCCOCCOCCOC)c2)c(-c2cc(C(=O)NCc3cccc(C(F)(F)F)c3)ccn2)c1 [Example 175, 1-(3-(4-(diethylamino)-2-(4-(3-(trifluoromethyl)benzylcarbamoyl)pyridin-2-yl)phenylcarbamoyl)phenyl)-2,5,8,11-tetraoxamidecan-13-yl 2,5,8,11,14,17,20-heptaoxadocosan-22-ylcarbamate] | 1 to 7.94 | 1 to 7.94
O=C(O)CCSCc1cccc(C(=O)Nc2ccc(N3CCCCC3)cc2-c2cc(NCc3ccccc3)ncn2)c1 [Example 3.7, 3-((3-((2-(6-(Benzylamino)pyrimidin-4-yl)-4-(piperidin-1-yl)phenyl)carbamoyl)benzyl)thio)propanoic acid] | 10 to 31.6 | 10 to 31.6
CCN(CC)c1ccc(NC(=O)c2cccc(CCCOCCOCCOCCOCCC(=O)N3CCN(c4ccc(OCCOCCOCCOC)cc4)CC3)c2)c(-c2cc(C(=O)NCc3cccc(C(F)(F)F)c3)ccn2)c1 [Example 263, 2-(5-(diethylamino)-2-(3-(16-(4-(4-(2-(2-(2-methoxyethoxy)ethoxy)ethoxy)phenyl)piperazin-1-yl)-16-oxo-4,7,10,13-tetraoxahexadecyl)benzamido)phenyl)-N-(3-(trifluoromethyl)benzyl)isonicotinamide] | 1 to 7.94 | < 1
CCN(CC)c1ccc(NC(=O)c2cccc(CCCOCCOCCOCCOCCO)c2)c(-c2cc(C(=O)NCc3cccc(C(F)(F)F)c3)ccn2)c1 [Example 267, 2-(5-(diethylamino)-2-(3-(1-hydroxy-3,6,9,12-tetraoxapentadecan-15-yl)benzamido)phenyl)-N-(3-(trifluoromethyl)benzyl)isonicotinamide] | < 1 | < 1
COc1ccc(CNc2cc(-c3cc(N4CCCCC4)ccc3NC(=O)c3cccc(CSCCC(=O)O)c3)ncn2)cc1OC [Example 3.6, 3-((3-((2-(6-((3,4-Dimethoxybenzyl)amino)pyrimidin-4-yl)-4-(piperidin-1-yl)phenyl)carbamoyl)benzyl)thio)propanoic acid] | 10 to 31.6 | 10 to 31.6
O=C(CCOCCOCCOCCOCCCc1cccc(C(=O)Nc2ccc(N3CCCCC3)cc2-c2cc(C(=O)NCc3cccc(C(F)(F)F)c3)ccn2)c1)NC(CO)(CO)CO [Example 278] | 1 to 7.94 | 1 to 7.94
CCN(CC)c1ccc(NC(=O)c2cccc(C(=O)N(C)CCN3CCN(C(=O)OCCOCCOCCOCCOCCOCCOCCOC)CC3)c2)c(-c2cc(C(=O)N[C@H]3CCCc4ccccc43)ccn2)c1 [Example 230, (S)-2,5,8,11,14,17,20-heptaoxadocosan-22-yl 4-(2-(3-(4-(diethylamino)-2-(4-(1,2,3,4-tetrahydronaphthalen-1-ylcarbamoyl)pyridin-2-yl)phenylcarbamoyl)-N-methylbenzamido)ethyl)piperazine-1-carboxylate] | 1 to 7.94 | 1 to 7.94
CCN(CC)c1ccc(NC(=O)c2cccc(CCCOCCOCCOCCOCCC(=O)NC(CO)(CO)CO)c2)c(-c2cc(C(=O)N[C@H]3CCCc4ccccc43)ccn2)c1 [Example 283] | < 1 | 1 to 7.94

More lines, now with the values ahead:

IC50 [1] [µM] | IC50 [2] [µM] | Compound
1 to 7.94 | 1 to 7.94 | CN(CCN1CCOCC1)C(=O)c1cccc(C(=O)Nc2ccc(N3CCCCC3)cc2-c2cc(C(=O)N[C@@H]3CCCc4ccccc43)ccn2)c1 [Example 97]
1 to 7.94 | 1 to 7.94 | CN(CCN1CCC(C(=O)OC(C)(C)C)CC1)C(=O)c1cccc(C(=O)Nc2ccc(N3CCCCC3)cc2-c2cc(C(=O)N[C@H]3CCCc4ccccc43)ccn2)c1 [Example 244, (S)-tert-butyl 1-(2-(N-methyl-3-(4-(piperidin-1-yl)-2-(4-(1,2,3,4-tetrahydronaphthalen-1-ylcarbamoyl)pyridin-2-yl)phenylcarbamoyl)benzamido)ethyl)piperidine-4-carboxylate]
10 to 31.6 | 10 to 31.6 | CN(CCN1CCOC[C@H]1C(=O)N(C)CCOCCOCCOCCC(=O)O)C(=O)c1cccc(C(=O)Nc2ccc(N3CCCCC3)cc2-c2cc(C(=O)N[C@H]3CCCc4ccccc43)ccn2)c1 [Example 243, 2-methyl-1-((S)-4-(2-(N-methyl-3-(4-(piperidin-1-yl)-2-(4-((S)-1,2,3,4-tetrahydronaphthalen-1-ylcarbamoyl)pyridin-2-yl)phenylcarbamoyl)benzamido)ethyl)morpholin-3-yl)-1-oxo-5,8,11-trioxa-2-azatetradecan-14-oic acid]
1 to 7.94 | 1 to 7.94 | O=C(O)c1cccc(COc2cccc(C(=O)Nc3ccc(N4CCCCC4)cc3-c3cc(C(=O)NCc4cccc(C(F)(F)F)c4)ccn3)c2)c1 [Example 183, 3-((3-(4-(piperidin-1-yl)-2-(4-(3-(trifluoromethyl)benzylcarbamoyl)pyridin-2-yl)phenylcarbamoyl)phenoxy)methyl)benzoic acid]
< 1 | < 1 | CCN(CC)c1ccc(NC(=O)c2cccc(C(=O)N(C)CCN3CCN(C(=O)N(C)CCOCCOCCOCCC(=O)OC(C)(C)C)CC3)c2)c(-c2cc(C(=O)N[C@H]3CCCc4ccccc43)ccn2)c1 [Example 212, tert-butyl 3-[2-(2-{2-[(4-{2-[1-(3-{[4-(diethylamino)-2-(4-{[(1S)-1,2,3,4-tetrahydronaphthalen-1-yl]carbamoyl}pyridin-2-yl)phenyl]carbamoyl}phenyl)-N-methylformamido]ethyl}piperazin-1-yl)carbonyl(methyl)amino]ethoxy}ethoxy)ethoxy]propanoate]
< 1 | 1 to 7.94 | CN(CCN1CCC[C@H]1C(=O)OC(C)(C)C)C(=O)c1cccc(C(=O)Nc2ccc(N3CCCCC3)cc2-c2cc(C(=O)N[C@H]3CCCc4ccccc43)ccn2)c1 [Example 187, (S)-tert-butyl 1-(2-(N-methyl-3-((4-(piperidin-1-yl)-2-(4-(((S)-1,2,3,4-tetrahydronaphthalen-1-yl)carbamoyl)pyridin-2-yl)phenyl)carbamoyl)benzamido)ethyl)pyrrolidine-2-carboxylate]
